Here are results for nine molecules from patent US20050209251A1, “Substituted pyrazolo-pyrimidine-4-ones” (priority 2002, published 2005).

Data set [1] can be described thus: logP determination by reversed-phase HPLC (EEC Directive 79/831 Annex V.A8), acidic range. The data set is classed as physicochemical. The settings on record: for chromatographic logP: pH 2, HPLC, C18 reversed-phase column, read-out: logP (pH 2). How it is done: The logP values given in the table were determined in accordance with EEC Directive 79/831 Annex V.A8 by HPLC (High Performance Liquid Chromatography) using a reversed-phase column (C 18). Temperature: 43° C.
(a) Mobile phases for the determination in the acidic range: 0.1% phosphoric acid, acetonitrile; linear gradient from 10% acetonitrile to 90% acetonitrile—the corresponding measurement results in Table 1 are marked a).
Calibration was carried out using unbranched alkan-2-ones (having 3 to 16 carbon atoms) with known logP values (determination of the logP values by the retention times using linear interpolation between two successive alkanones).

In data set [2] the test system is weeds. Description: Post-emergence test (herbicidal action). It is filed as in vivo. Conditions: test plants of 5-15 cm sprayed, rated after three weeks. As to the method: Post-Emergence Test (Herbicidal Action)
(§1) To produce a suitable preparation of active compound, 1 part by weight of active compound is mixed with the stated amount of solvent, the stated amount of emulsifier is added and the concentrate is diluted with water to the desired concentration.
Test plants of a height of 5-15 cm are sprayed with the preparation of active compound such that the particular amounts of active compound desired are applied per unit area. The concentration of the spray liquor is chosen such that the particular amounts of active compound desired are applied in 1000 l of water/ha.
(§2) After three weeks, the degree of damage to the plants is rated in % damage in comparison to the development of the untreated control.

Data set [3] has as its system weeds. Kind of data set: Pre-emergence test (herbicidal action). Conditions: soil sprayed 24 hours after sowing, rated after three weeks. The data set is classed as in vivo. As to the method: Pre-Emergence Test (Herbicidal Action)
as §1
Seeds of the test plants are sown in normal soil. After 24 hours, the soil is sprayed with the preparation of active compound such that the particular amount of active compound desired is applied per unit area. The concentration of active compound in the spray liquor is chosen such that the particular amount of active compound desired is applied in 1000 litres of water per hectare.
as §2

Another data set concerns Meloidogyne incognita. Kind of data set: Meloidogyne test (nematicidal action). The data set is classed as in vivo. Conditions: Meloidogyne incognita egg/larvae suspension, lettuce in sand. How it is done:
Meloidogyne Test (Nematicidal Action)
To produce a suitable preparation of active compound, 1 part by weight of active compound is mixed with the stated amounts of solvent and emulsifier, and the concentrate is diluted with water to the desired concentration.
Vessels are filled with sand, solution of active compound, Meloidogyne incognita egg/larvae suspension and lettuce seeds. The lettuce seeds germinate and the plants develop. On the roots, galls are formed.
After the desired period of time, the nematicidal action is determined in % by the formation of galls. 100% means that no galls have been found; 0% means that the number of galls on treated plants corresponds to that of the untreated control.

With `Cn1cnc2c(cnn2-c2ncc(C(F)(F)F)cc2Cl)c1=O` [Example 2, 1-(3-chloro-5-trifluoromethylpyridin-2-yl)-5-methyl-1,5-dihydropyrazolo[3,4-d]pyrimidin-4-one], the melting point (in general, the temperature of the solid-liquid transition) came to 253 °C. Besides, the chromatographic logP in data set [1] stood at 1.76.

In turn, `Cc1nc2c(cnn2-c2c(Cl)cc(C(F)(F)F)cc2Cl)c(=O)[nH]1` [Example 3, 1-(2,6-dichloro-4-trifluoromethylphenyl)-6-methyl-1,5-dihydropyrazolo[3,4-d]pyrimidin-4-one] gave a melting point of 300 °C. In addition, the chromatographic logP in data set [1] turned out to be 2.25.

In the case of `Cc1nc2c(cnn2-c2c(Cl)cc(C(F)(F)F)cc2Cl)c(=O)n1C` [Example 4, 1-(2,6-dichloro-4-trifluoromethylphenyl)-5,6-dimethyl-1,5-dihydropyrazolo[3,4-d]pyrimidin-4-one], the melting point stood at 195 °C. For the same molecule, the chromatographic logP in data set [1] came out at 2.69.

In turn, `O=c1[nH]c(C2CC2)nc2c1cnn2-c1ncc(C(F)(F)F)cc1Cl` [Example 5, 1-(3-chloro-5-trifluoromethylpyridin-2-yl)-6-cyclopropyl-1,5-dihydropyrazolo[3,4-d]pyrimidin-4-one] gave a melting point of 239 °C. Moreover, the chromatographic logP in data set [1] is 2.19.

On to `O=c1[nH]c(C2(F)CC2)nc2c1cnn2-c1ncc(C(F)(F)F)cc1Cl` [Example 6, 6-(1-fluorocyclopropyl)-1-(3-chloro-5-trifluoromethylpyridin-2-yl)-1,5-dihydropyrazolo[3,4-d]pyrimidin-4-one], for which the melting point was 211 °C. The chromatographic logP in data set [1] amounted to 2.29. Besides, in the data set on weeds [2], the “herbicidal action against weeds (degree of damage)” value (“herbicidal action against weeds” for short) was “strong action against weeds”.

For the molecule `CCc1nc2c(cnn2-c2ncc(C(F)(F)F)cc2Cl)c(=O)n1C` [Example 16], in data set [1], the “logP a) (Table 1, Physical data)” value is listed as “(I) logP = 2.46^a)”. Also, the “herbicidal action against weeds” value in the data set with weeds [3] and in the data set with weeds [2] was “strong action against weeds” in each case. The “nematicidal action (formation of galls)” value with Meloidogyne incognita is reported as “good activity”.

As to `Cn1c(C2CC2)nc2c(cnn2-c2ncc(Cl)cc2Cl)c1=O` [Example 80], in data set [1], the “logP a) (Table 1, Physical data)” value is listed as “(I) logP = 2.30^a)”. For the same molecule, the “herbicidal action against weeds” value in the data set with weeds [3] and in the data set on weeds [2] was “strong action against weeds” throughout. For the same molecule, the “nematicidal action (formation of galls)” value in the data set on Meloidogyne incognita is listed as “good activity”.

In turn, `NC(=O)c1cnn(-c2ncc(C(F)(F)F)cc2Cl)c1N` [II-1, 5-amino-1-(3-chloro-5-trifluoromethylpyridin-2-yl)pyrazole-4-carboxamide] yielded a melting point of 196 °C. Moreover, in data set [1], the chromatographic logP was 1.46.

On to `NC(=O)c1cnn(-c2ncc(C(F)(F)F)cc2Cl)c1NC(=O)C1(F)CC1` [VI-1, 5-(1-fluorocyclopropylcarbonylamino)-1-(3-chloro-5-trifluoromethylpyridin-2-yl)pyrazole-4-carboxamide], for which the melting point stood at 204 °C. In addition, the chromatographic logP in data set [1] turned out to be 2.02.
